Results as given in ChEMBL document CHEMBL5506074, “Discovery and Optimization of Tetrahydroisoquinoline Derivatives To Enhance Lysosome Biogenesis as Preclinical Candidates for the Treatment of Alzheimer's Disease” (J Med Chem, 2024).
Activity calls are given as the source filed them. The rule behind the calls is not given here.

Legend:
[1] = Induction of TFEB nuclear translocation in human HeLa cells expressing EGFP at 10 uM measured at 3 hrs by fluorescence microscopic analysis; type: functional
[2] = Induction of TFEB nuclear translocation in human HeLa cells expressing EGFP at 10 uM measured at 6 hrs by fluorescence microscopic analysis; type: functional
[3] = Induction of TFEB nuclear translocation in human HeLa cells expressing EGFP at 30 uM measured at 3 hrs by fluorescence microscopic analysis; type: functional
[4] = Tmax in ICR mouse at 20 mg/kg, po measured upto 24 hrs by LC-MS/MS analysis; type: ADME, organism-based; settings: in vivo
[5] = Half life in ICR mouse at 20 mg/kg, po measured upto 24 hrs by LC-MS/MS analysis; type: ADME, organism-based; settings: in vivo
[6] = Half life in ICR mouse at 10 mg/kg, ip measured upto 24 hrs by LC-MS/MS analysis; type: ADME, organism-based; settings: in vivo
[7] = Cmax in ICR mouse at 10 mg/kg, ip measured upto 24 hrs by LC-MS/MS analysis; type: ADME, organism-based; settings: in vivo
[8] = AUC (0 to t) in ICR mouse at 20 mg/kg, po measured upto 24 hrs by LC-MS/MS analysis; type: ADME, organism-based; settings: in vivo
[9] = AUC (0 to t) in ICR mouse at 10 mg/kg, ip measured upto 24 hrs by LC-MS/MS analysis; type: ADME, organism-based; settings: in vivo
[10] = AUC (0 to t) in ICR mouse at 5 mg/kg, iv measured upto 24 hrs by LC-MS/MS analysis; type: ADME, organism-based; settings: in vivo
[11] = Clearance in ICR mouse at 5 mg/kg, iv measured upto 24 hrs by LC-MS/MS analysis; type: ADME, organism-based; settings: in vivo
[12] = Ratio of drug concentration in ICR mouse brain to plasma at 5 mg/kg, iv measured upto 24 hrs by LC-MS/MS analysis; type: ADME, organism-based; settings: brain and plasma, read-out: BPR
[13] = Acute toxicity in C57BL/6J mouse assessed as change in body weight at 50 mg/kg, ip measured upto 14 days; type: organism-based; settings: in vivo, 336 h, time < 14 day
[14] = Acute toxicity in C57BL/6J mouse assessed as brain damage at 50 mg/kg, ip measured upto 14 days by H and E staining based analysis; type: organism-based; settings: in vivo, 336 h, time < 14 day
[15] = Acute toxicity in C57BL/6J mouse assessed as kidney damage at 50 mg/kg, ip measured upto 14 days H and E staining based analysis; type: organism-based; settings: in vivo, 336 h, time < 14 day
[16] = Acute toxicity in C57BL/6J mouse assessed as heart damage at 50 mg/kg, ip measured upto 14 days H and E staining based analysis; type: organism-based; settings: in vivo, 336 h, time < 14 day
HeLa [17] = assay: Upregulation of CTSD mRNA expression in human HeLa cells at 10 uM incubated for 24 hrs by qRT-PCR analysis; type: functional, cell-based
HeLa [18] = assay: Upregulation of CTSF mRNA expression in human HeLa cells at 10 uM incubated for 24 hrs by qRT-PCR analysis; type: functional, cell-based
HeLa [19] = assay: Upregulation of LC3B mRNA expression in human HeLa cells at 10 uM incubated for 24 hrs by qRT-PCR analysis; type: functional, cell-based
HeLa [20] = assay: Upregulation of OPTN mRNA expression in human HeLa cells at 10 uM incubated for 24 hrs by qRT-PCR analysis; type: functional, cell-based
HeLa [21] = assay: Upregulation of p62 mRNA expression in human HeLa cells at 10 uM incubated for 24 hrs by qRT-PCR analysis; type: functional, cell-based
HeLa [22] = assay: Upregulation of ATG2A mRNA expression in human HeLa cells at 10 uM incubated for 24 hrs by qRT-PCR analysis; type: functional, cell-based
HeLa [23] = assay: Upregulation of UVRAG mRNA expression in human HeLa cells at 10 uM incubated for 24 hrs by qRT-PCR analysis; type: functional, cell-based
HeLa [24] = assay: Upregulation of HEXA mRNA expression in TFEB knockout human HeLa cells at 10 uM incubated for 24 hrs by qRT-PCR analysis; type: functional, cell-based
HeLa [25] = assay: Upregulation of CTSD mRNA expression in TFEB knockout human HeLa cells at 10 uM incubated for 24 hrs by qRT-PCR analysis; type: functional, cell-based
HeLa [26] = assay: Upregulation of CTSF mRNA expression in TFEB knockout human HeLa cells at 10 uM incubated for 24 hrs by qRT-PCR analysis; type: functional, cell-based
HeLa [27] = assay: Upregulation of OPTN mRNA expression in TFEB knockout human HeLa cells at 10 uM incubated for 24 hrs by qRT-PCR analysis; type: functional, cell-based
HeLa [28] = assay: Upregulation of Atg16L1 mRNA expression in TFEB knockout human HeLa cells at 10 uM incubated for 24 hrs by qRT-PCR analysis; type: functional, cell-based
HeLa [29] = assay: Upregulation of UVRAG mRNA expression in TFEB knockout human HeLa cells at 10 uM incubated for 24 hrs by qRT-PCR analysis; type: functional, cell-based
HeLa [30] = assay: Cytotoxicity against human HeLa cells assessed as effect on cell viability at 10 uM incubated for 24 hrs; type: functional, cell-based
SH-SY5Y = assay: Cytotoxicity against human SH-SY5Y cells assessed as effect on cell viability at 10 uM incubated for 24 hrs; type: functional, cell-based
[31] = tested on: Primary neocortical neuron; assay: Cytotoxicity against mouse Primary neocortical neuron cells assessed as effect on cell viability at 10 uM incubated for 24 hrs; type: functional, cell-based
HeLa [32] = assay: Induction of cell cycle arrest in human HeLa cells assessed as effect on LAMP1 level at 10 uM incubated for 12 hrs by qRT-PCR analysis; type: functional, cell-based
HeLa [33] = assay: Induction of cell cycle arrest in human HeLa cells assessed as effect on p21 level at 10 uM incubated for 12 hrs by qRT-PCR analysis; type: functional, cell-based
Mus musculus [34] = assay: Anti-alzheimer activity against APP/PS1 mouse model assessed as upregulation of LAMP1 mRNA expression in brain at 10 mg/kg, ip administered for 30 days; type: functional, organism-based; settings: time 30.0 day
Mus musculus [35] = assay: Anti-alzheimer activity against APP/PS1 mouse model assessed as reduction in amyloid beta plaque in cortex at 10 mg/kg, ip administered for 30 days; type: functional; parameters: scale not given: the % may be the effect or the level left; settings: time 30 day
Mus musculus [36] = assay: Anti-alzheimer activity against APP/PS1 mouse model assessed as reduction in amyloid beta plaque in hippocampus at 10 mg/kg, ip administered for 30 days; type: functional; parameters: scale not given: the % may be the effect or the level left; settings: time 30 day
Mus musculus [37] = assay: Anti-alzheimer activity against APP/PS1 mouse model assessed as increase in time spent in the target quadrant at 10 mg/kg, ip administered for 30 days by Morris water maze test; type: functional, organism-based; settings: time 30.0 day
Mus musculus [38] = assay: Anti-alzheimer activity against APP/PS1 mouse model assessed as upregulation of CTSB mRNA expression in brain at 10 mg/kg, ip administered for 30 days; type: functional, organism-based; settings: time 30.0 day
Mus musculus [39] = assay: Anti-alzheimer activity against APP/PS1 mouse model assessed as upregulation of ATG16L1 mRNA expression in brain at 10 mg/kg, ip administered for 30 days; type: functional, organism-based; settings: time 30.0 day
[40] = Volume of distribution at steady state in ICR mouse measured upto 24 hrs by LC-MS/MS analysis; type: ADME; settings: in vivo, read-out: Vdss

c1ccc2c(CCC3NCCc4cc5c(cc43)OCO5)c[nH]c2c1 (configuration not stated)
Activity [1]: 44% | Activity [2]: 51% | Activity [3]: 97% | Tmax [4]: 0.58 h | half-life [5]: 3.1 h | half-life [6]: 2.05 h | Cmax [7]: 4720 ng/mL | AUC(0-t) at 24 h ([8]; ICR): 17100 ng·h/mL | AUC(0-t) at 24 h [9]: 7640 ng·h/mL | AUC(0-t) at 24 h ([10]; ICR): 3310 ng·h/mL | clearance [11]: 30.3 mL/min/kg | Kp at 24 h [12]: 2.8 | Activity [13]: Non-Toxic | Activity [14]: Non-Toxic | Activity [15]: Non-Toxic | Activity [16]: Non-Toxic | Activity (HeLa [17]): Active | Activity (HeLa [18]): Active | Activity (HeLa [19]): Active | Activity (HeLa [20]): Active | Activity (HeLa [21]): Active | Activity (HeLa [22]): Active | Activity (HeLa [23]): Active | Activity (HeLa [24]): Active | Activity (HeLa [25]): Active | Activity (HeLa [26]): Active | Activity (HeLa [27]): Active | Activity (HeLa [28]): Active | Activity (HeLa [29]): Active | Activity (HeLa [30]): Active | Activity (SH-SY5Y): Active | Activity [31]: Active | Activity (HeLa [32]): inactive | Activity (HeLa [33]): inactive | Activity (Mus musculus [34]): Active | Activity (Mus musculus [35]): 26.5% | Activity (Mus musculus [36]): 67.5% | Activity (Mus musculus [37]): Active | Activity (Mus musculus [38]): Active | Activity (Mus musculus [39]): Active | Vd [40]: 4.51 L/kg

Fc1ccc2[nH]cc(CCC3c4cc5c(cc4CCN3CC3CCOCC3)OCO5)c2c1 (configuration not stated)
Activity [1]: 72% | Activity [2]: 79% | Activity [3]: 94% | Tmax [4]: 0.42 h | half-life [5]: 2.37 h | half-life [6]: 1.17 h | Cmax [7]: 146 ng/mL | AUCt ([8]; po, 20 mg/kg, 24 h): 17.4 ng·h/mL | AUC(0-t) at 24 h [9]: 210 ng·h/mL | AUCt ([10]; iv, 5 mg/kg, 24 h): 409 ng·h/mL | clearance [11]: 204 mL/min/kg | Kp at 24 h [12]: 6.9 | Activity [13]: Non-Toxic | Activity [14]: Non-Toxic | Activity [15]: Non-Toxic | Activity [16]: Non-Toxic | Activity (HeLa [17]): Active | Activity (HeLa [18]): Active | Activity (HeLa [19]): Active | Activity (HeLa [20]): Active | Activity (HeLa [21]): Active | Activity (HeLa [22]): Active | Activity (HeLa [23]): Active | Activity (HeLa [24]): Active | Activity (HeLa [25]): Active | Activity (HeLa [26]): Active | Activity (HeLa [27]): Active | Activity (HeLa [28]): Active | Activity (HeLa [29]): Active | Activity (HeLa [30]): Active | Activity (SH-SY5Y): Active | Activity [31]: Active | Activity (HeLa [32]): inactive | Activity (HeLa [33]): inactive | Activity (Mus musculus [34]): Active | Activity (Mus musculus [35]): 29.5% | Activity (Mus musculus [36]): 69.8% | Activity (Mus musculus [37]): Active | Activity (Mus musculus [38]): Active | Activity (Mus musculus [39]): Active | Vd [40]: 36.8 L/kg
